Measured values reported in patent publication US20230234920A1, “Azirine Containing Compounds as Anti-Angiogenesis Agents and a Process for the Preparation Thereof” (COUNCIL OF SCIENTIFIC & INDUSTRIAL RESEARCH, priority 2020, published 2023).

Legend:
HCT116 colon tumor = HCT116 colon tumor model in nude mice; assay type: in vivo
Procedure: FIG. 12 represents Compound 1 inhibited tumor growth in vivo. Tumor sizes were recorded every alternate day by Vernier caliper measurements and calculated as [4/3*[…]*(length/2)*(width/2)]. (A) Nude mice with induced HCT116 tumor were given vehicle to the control group, sunitinib at (40 mg/kg) as a standard drug given orally and Compound 1 at (25 mg/kg) through IP route for 21 days and tumor regression was calculated for all groups. (B) Nude Mice with induced HCT116 colon tumor were given both, sunitinib and Compound 1 at (25 mg/kg) intra-muscularly for 15 days after attaining a tumor size of 100 mm^3, tumor volume reduction for treated groups were calculated and compared with control. Data are expressed as means±S.E.M. (6 mice/group) with significant difference compared with control at p<0.0001.
HCT 116 (Human colon cancer cell line) cells were trypsinised and the pellet was dissolved in ice chilled 1×PBS. HCT 116 cells suspension to a concentration of (1*10^6) cells in 50 μL PBS solution, were left on ice with occasional agitation. Mice were anaesthetized with ketamine: xylazine (100:10 mg/kg), abdominal side area was shaved and sterilized using 70% ethanol. 50 μL of cell suspension was injected slowly subcutaneously to all the mice. After 2 days, booster dose of tumor cells was injected to all mice as performed previously. The growth of the tumor was measured by using vernier caliper on day 2, 4, 6, 8, 10, 12, 14, 16 18, 20, 23 and presented in the form of tumor volume (mm^3)=[4/3*π*(long axis/2)*(short axis/2)]. After attaining a volume of 100 mm^3 of tumor size, all mice were distributed equally (n=6−8) in 3 groups of controls received vehicle (Olive oil). Sutent (25 mg/kg) as a positive control was given orally and Compound 1 (25 mg/kg) dissolved in olive oil was injected intra-muscularly for 15 days and the tumor size regression was measured on every alternate day as described previously. Post 15 days of treatment, mice from all groups were sacrificed and tumor was excised out and processed further for immunohistochemistry and molecular analysis.

phospho-VEGFR2 = assay: Immunoblotting of treated HUVECs, phospho-VEGFR2; assay type: cell-based, human; conditions: 250 nM, 6 h
Procedure: (§1) (A) Serum-starved HUVECs were treated with control (0.1% DMSO), sunitinib and Compound 1 at a given concentrations and then incubated for 6 h. The expression level of phospho-VEGFR2 and GAPDH (housekeeping protein) was analyzed by immunoblotting. (B) Blots were quantified with Image-J software and the bar graphs represent the relative density of phospho-VEGFR2 normalized with GAPDH and the data are represented as mean±SEM with significant difference compared with control at *p<0.05. (D) Protein angiogenesis array showing up-regulation of anti-angiogenic protein and down-regulation of pro-angiogenic proteins on endothelial cell treated with Compound 1 at 260 nM.
Whole cell lysates of endothelial cells at 6 h of treatment with Compound 1 (250 nM) and sunitinib (50 nM) were prepared using the RIPA-lysis buffer. Proteins were fractionated and resolved on 8% SDS-PAGE gels and transferred onto PVDF membranes (Millipore). After incubation in blocking buffer (5% BSA in 1×TBST) for 1 h the membranes were incubated with primary antibodies specific for p-Akt and p-Src. GAPDH was used as housekeeping and loading control. The blots were then incubated with specific HRP-conjugated secondary antibodies and bands were visualized using ECL (Millipore) on Image Quant (LAS4010) chemiluminescence detection system. The band intensities were quantified using My Image Analysis software.

chick CAM = assay: CAM (chick chorio-allantoic membrane) assay; assay type: in vivo; conditions: 500 nM and 250 nM
Procedure: (A) Chick CAM assays were used to observe the effect of Compound 1 on angiogenesis in vivo. 1 mm^2 window was made in 8 days old chicken eggs to expose the CAM, and a gelatin disc ([…]) treated with vehicle (0.1% DMSO), sunitinib and Compound 1 at a indicated concentrations were placed on the CAM surface. Post 4 days of incubation, the discs and associated CAM were photographed and excised out, for hemoglobin estimation by drapkin's reagent. (B) Blood vessel density was calculated and Hb. concentration was measured and representative graph was plotted for the control and treatment group and data are represented as mean±SEM with significant difference from control at *p<0.05, **p<0.01 and ***p<0.001.
The eggs were incubated horizontally for 3 days at 37° C. in a 60% humidified atmosphere, using a hybridization incubator (combi-SV 12) with one hour scheduled rotation. Post 3 days of incubation, 2-3 mL of albumin was aspirated from the acute pole of the egg to create false air sac directly over the CAM. Post fertilization (Day 8), a fine blade was used to make an approximate 0.5 cc square incision on the eggshell under sterile conditions and the eggshell window fragment was removed to access the CAM beneath. A piece of gelatin sponge embedded in Compound 1 (500 nM and 250 nM) and sunitinib (2 μM) individually were placed on the CAM of the chicken embryo and incubated for 12 days. Sterile parafilm tape was used to seal back the window and the eggs were further incubated without the rotation setting. After 12 days of incubation the CAM integration was assessed by visual inspection and photographed with a digital camera (Canon EOS); the CAM membrane along with gelatin sponge were harvested and its hemoglobin (Hb.) estimation was done by Drabkin's method according to the manufacturer's protocol (Sigma, St. Louis, Mo.). Absorbance was measured at 540 nm and hemoglobin concentration was calculated.

endothelial cell = assay: Protein angiogenesis array; assay type: cell-based; conditions: 260 nM
Procedure: as §1

ECs = assay: Post tubule formation assay (disruption of preformed tubules); assay type: cell-based, human; conditions: treatment of already formed tubule
Procedure: FIG. 3 represents effect of Compound 1 on post tubule formation by ECs. (A) ECs were incubated with indicated different concentrations of compound 1 along with VEGF (50 ng/mL) and sunitinib (50 nM) after 6 h of treatment to the already formed tubule. Post treatment photographs were taken at using an inverted microscope at 10×magnification.

`CCOC(=O)C1N=C1CCc1ccc(OC)cc1` (racemic) [Compound 1, Ethyl 3-(4-methoxyphenethyl)-2H-azirine-2-carboxylate] was tested, and the tumor volume (HCT116 colon tumor; 25 mg/kg IP route for 21 days, vs vehicle) was “progressive significant decrease in tumor volume”, the “growth of HCT116 cells xenografts” value (HCT116 colon tumor; 25 mg/kg, 15 days) was “powerful inhibitory effect” and the T/C (HCT116 colon tumor; 25 mg/kg, day 2) was 94.77%. It also gave a T/C (HCT116 colon tumor; 25 mg/kg, day 4) of 72.79%, a T/C (HCT116 colon tumor; 25 mg/kg, day 6) of 67.93% and a T/C (HCT116 colon tumor; 25 mg/kg, day 8) of 66.22%. The T/C (HCT116 colon tumor; 25 mg/kg, day 10) was 68.70%, the T/C (HCT116 colon tumor; 25 mg/kg, day 12) was 56.83% and the T/C (HCT116 colon tumor; 25 mg/kg, day 14) was 49.80%. For the same compound, the T/C (HCT116 colon tumor; 25 mg/kg, day 16) was 43.88%, the “vascular density in tumor tissues (CD31)” value (HCT116 colon tumor; 25 mg/kg, vs control group) was “reduced the vascular density in tumor tissues” and the tumor reduction (HCT116 colon tumor; in comparison to vehicle treated control group, end of experiment) was 62.02%. For the same compound, the p-VEGFR2 expression (phospho-VEGFR2) was “marked reduction”, the blood vessels density (chick CAM) was “suppressed blood vessels density” and the hemoglobin content (chick CAM) was 50 to 60 µg/mL. For the same compound, the “expression of anti-angiogenic and angiogenic proteins” value (endothelial cell) was “significantly increased the protein expression of anti-angiogenic proteins and decreased the expression of angiogenic proteins” and the “disruption of preformed tubules” value (ECs) was “could not be able to disrupt the preformed tubules”.
